Laboratory results: patent publication US12371454B2, “Cyclic peptide compound having Kras inhibitory action” (priority 2019, dated 2025)
Starred links: 1 amine or outer side, 2 acyl side, 3 side chain; linkers in the order of their positions; H or OH if unused. Positions of bridges follow the written chain, without caps; N, C: chain ends. Non-standard residues stand in square brackets, D forms with d. Residues, ends and D or L forms follow the SMILES beside them. *: point of attachment. hPhe(3-Cl-4-CF3) = N[C@@H](CCc1ccc(C(F)(F)F)c(Cl)c1)C(=O)O; hPhe(3-F,4-CF3) = N[C@@H](CCc1ccc(C(F)(F)F)c(F)c1)C(=O)O; X38 = CN([C@@H](Cc1cccc(OC(F)(F)F)c1)C(=O)[*:2])[*:1]; NMePhe(4-CF3) = CN[C@@H](Cc1ccc(C(F)(F)F)cc1)C(=O)O; NMePhe(3-Me) = CN[C@@H](Cc1cccc(C)c1)C(=O)O; NMePhe(3-F) = CN[C@@H](Cc1cccc(F)c1)C(=O)O; NMeAla(cPent) = CN[C@@H](CC1CCCC1)C(=O)O; NMeGly(cPent) = CN[C@H](C(=O)O)C1CCCC1; NMeCha = CN[C@@H](CC1CCCCC1)C(=O)O; NMeGly(cPr) = CN[C@H](C(=O)O)C1CC1; NMeD = CN[C@@H](CC(=O)O)C(=O)O; NMeL = CN[C@@H](CC(C)C)C(=O)O; NMeV = CN[C@H](C(=O)O)C(C)C; d(β3hA) = C[C@@H](N)CC(=O)O; NMeS = CN[C@@H](CO)C(=O)O; NMeA = CN[C@@H](C)C(=O)O; Piperidide = C1CCN(*)CC1; dNMeA = CN[C@H](C)C(=O)O; Ac5c = NC1(C(=O)O)CCCC1; Aze = O=C(O)[C@@H]1CCN1; CH2CMe2OH = CC(C)(O)C*; Aib = CC(C)(N)C(=O)O; Isopentyl = CC(C)CC*; Sar = CNCC(=O)O

Biological target: T1, Kras and SOS1 (biotin-tagged human Kras loaded with GDP, His-tagged human SOS1) (Homo sapiens, UniProt P01116, G12D)
T1 construct: made in house; host or cells: E. coli (stated for Kras only)
Test: Protein-protein interaction inhibition between Kras and SOS1 (KrasGl2D-SOS PPI) using AlphaScreen
Assay type: binding
Details: AlphaScreen; biotin-tagged human Kras loaded with GDP, His-tagged human SOS1; read-out: KRAS G12D-SOS PPI IC50
In short: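 Kras was produced in E. coli, purified, then loaded with GDP. It was paired via streptavidin acceptor beads with His-SOS1 held on nickel donor beads, and proximity signal at 520-620 nm was read after 680 nm illumination.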

T1 sequence (P01116 1-188 isoform P01116-2 G12D): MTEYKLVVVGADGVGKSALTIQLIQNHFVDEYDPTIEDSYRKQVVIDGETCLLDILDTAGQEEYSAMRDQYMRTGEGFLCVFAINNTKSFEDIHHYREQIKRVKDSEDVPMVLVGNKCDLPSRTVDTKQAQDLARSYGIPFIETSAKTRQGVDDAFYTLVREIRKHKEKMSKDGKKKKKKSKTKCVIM

Compound | IC50
CC[C@H](C)[C@@H]1NC(=O)[C@H](CC(C)C)N(C)C(=O)C[C@@H](C)NC(=O)[C@H](C2CCCC2)N(C)C(=O)C2(CCCC2)NC(=O)[C@@H]2CCCN2C(=O)[C@H](CCc2ccc(C(F)(F)F)c(Cl)c2)NC(=O)[C@@H](C)N(C)C(=O)[C@H](Cc2ccc(C(F)(F)F)cc2)N(C)C(=O)CN(C)C(=O)CN(C)C1=O [Compound 1542] (cyclo([Ac5c][NMeGly(cPent)][d(β3hA)][NMeL]I[Sar][Sar][NMePhe(4-CF3)][dNMeA][hPhe(3-Cl-4-CF3)]P)) | 170 nM
CC[C@H](C)[C@@H]1NC(=O)[C@H](C)N(C)C(=O)C[C@@H](C)NC(=O)[C@H](C2CCCC2)N(C)C(=O)C2(CCCC2)NC(=O)[C@@H]2CCCN2C(=O)[C@H](CCc2ccc(C(F)(F)F)c(Cl)c2)NC(=O)[C@H]2CCCN2C(=O)[C@H](CC2CCCCC2)N(C)C(=O)CN(C)C(=O)CN(C)C1=O [Compound 1543] (cyclo([Ac5c][NMeGly(cPent)][d(β3hA)][NMeA]I[Sar][Sar][NMeCha][dP][hPhe(3-Cl-4-CF3)]P)) | 160 nM
CC[C@H](C)[C@@H]1NC(=O)[C@H](CC(C)C)N(C)C(=O)C[C@@H](C)NC(=O)[C@H](CC(C)C)N(C)C(=O)C2(CCCC2)NC(=O)[C@@H]2CCN2C(=O)[C@H](CCc2ccc(C(F)(F)F)c(F)c2)NC(=O)CN(C)C(=O)[C@H](CC2CCCCC2)N(C)C(=O)CN(C)C(=O)CN(C)C1=O [Compound 1545] (cyclo([Ac5c][NMeL][d(β3hA)][NMeL]I[Sar][Sar][NMeCha][Sar][hPhe(3-F,4-CF3)][Aze])) | 42 nM
CC[C@H](C)[C@@H]1NC(=O)[C@H](CC(C)C)N(C)C(=O)C[C@@H](C)NC(=O)[C@H](CC(C)C)N(C)C(=O)C(C)(C)NC(=O)[C@H](COCC(C)(C)O)N(C)C(=O)[C@H](CCc2ccc(C(F)(F)F)c(Cl)c2)NC(=O)CN(C)C(=O)[C@H](COCCC(C)C)N(C)C(=O)CN(C)C(=O)CN(C)C1=O [Compound 1546] (cyclo([Aib][NMeL][d(β3hA)][NMeL]I[Sar][Sar][NMeS](Isopentyl)[Sar][hPhe(3-Cl-4-CF3)][NMeS](CH2CMe2OH))) | 40 nM
CC[C@H](C)[C@@H]1NC(=O)[C@H](CC(C)C)N(C)C(=O)C[C@@H](C)NC(=O)[C@H](C(C)C)N(C)C(=O)C2(CCCC2)NC(=O)[C@@H]2CCCN2C(=O)[C@H](CCc2ccc(C(F)(F)F)c(Cl)c2)NC(=O)CN(C)C(=O)[C@H](Cc2cccc(C)c2)N(C)C(=O)CN(C)C(=O)CN(C)C1=O [Compound 1547] (cyclo([Ac5c][NMeV][d(β3hA)][NMeL]I[Sar][Sar][NMePhe(3-Me)][Sar][hPhe(3-Cl-4-CF3)]P)) | 22 nM
CC[C@H](C)[C@@H]1NC(=O)[C@H](CC(C)C)N(C)C(=O)C[C@@H](C(=O)N2CCCCC2)N(C)C(=O)[C@H](C(C)C)N(C)C(=O)C2(CCCC2)NC(=O)[C@@H]2CCCN2C(=O)[C@H](CCc2ccc(C(F)(F)F)c(Cl)c2)NC(=O)CN(C)C(=O)[C@H](CC2CCCCC2)N(C)C(=O)[C@@H]2CCN2C(=O)[C@H](CC2CCCC2)N(C)C1=O [Compound 1552] ([NMeL]I[NMeAla(cPent)][Aze][NMeCha][Sar][hPhe(3-Cl-4-CF3)]P[Ac5c][NMeV][NMeD]-Piperidide; lactam N-11) | 61 nM
CC[C@H](C)[C@@H]1NC(=O)[C@H](CC(C)C)N(C)C(=O)C[C@@H](C(=O)N2CCCCC2)N(C)C(=O)[C@H](C(C)C)N(C)C(=O)C2(CCCC2)NC(=O)[C@@H]2CCCN2C(=O)[C@H](CCc2ccc(C(F)(F)F)c(Cl)c2)NC(=O)CN(C)C(=O)[C@H](CC2CCCCC2)N(C)C(=O)[C@@H]2CCN2C(=O)[C@H](C2CC2)N(C)C1=O [Compound 1553] ([NMeL]I[NMeGly(cPr)][Aze][NMeCha][Sar][hPhe(3-Cl-4-CF3)]P[Ac5c][NMeV][NMeD]-Piperidide; lactam N-11) | 12 nM
CC[C@H](C)[C@@H]1NC(=O)[C@H](CC(C)C)N(C)C(=O)C[C@@H](C)NC(=O)[C@H](C(C)C)N(C)C(=O)C2(CCCC2)NC(=O)[C@@H]2CCCN2C(=O)[C@H](CCc2ccc(C(F)(F)F)c(Cl)c2)NC(=O)CN(C)C(=O)[C@H](Cc2cccc(F)c2)N(C)C(=O)CN(C)C(=O)CN(C)C1=O [Compound 1556] (cyclo([Ac5c][NMeV][d(β3hA)][NMeL]I[Sar][Sar][NMePhe(3-F)][Sar][hPhe(3-Cl-4-CF3)]P)) | 17 nM
CC[C@H](C)[C@@H]1NC(=O)[C@H](CC(C)C)N(C)C(=O)C[C@@H](C)NC(=O)[C@H](C(C)C)N(C)C(=O)C2(CCCC2)NC(=O)[C@@H]2CCCN2C(=O)[C@H](CCc2ccc(C(F)(F)F)c(Cl)c2)NC(=O)CN(C)C(=O)[C@H](Cc2cccc(OC(F)(F)F)c2)N(C)C(=O)CN(C)C(=O)CN(C)C1=O [Compound 1573] (cyclo([Ac5c][NMeV][d(β3hA)][NMeL]I[Sar][Sar][X38][Sar][hPhe(3-Cl-4-CF3)]P)) | 57 nM
